Experimental data reported in BigSolDB 2.1.

COc1cc(CC#N)cc(OC)c1OC
solubility (mole fraction)
Details | 283.15 K | 288.15 K | 293.15 K | 298.15 K | 303.15 K | 308.15 K | 313.15 K | 318.15 K | 323.15 K
in DMF | 0.102 | 0.127 | 0.158 | 0.195 | 0.239 | 0.289 | 0.35 | 0.418 | 0.497
in cyclohexane | 0.000133 | 0.000248 | 0.000452 | 0.000814 | 0.00154 | 0.00253 | 0.00421 | 0.00671 | 0.011
in ethanol | 0.00753 | 0.00999 | 0.0141 | 0.0209 | 0.0327 | 0.0539 | 0.0927 | 0.167 | 0.312
in ethyl acetate | 0.0517 | 0.076 | 0.107 | 0.146 | 0.195 | 0.25 | 0.315 | 0.386 | 0.461
in isopropanol | 0.00545 | 0.00703 | 0.00942 | 0.0134 | 0.0199 | 0.0305 | 0.0497 | 0.0838 | 0.146
in isopropyl acetate | 0.0389 | 0.0537 | 0.0736 | 0.101 | 0.135 | 0.182 | 0.243 | 0.321 | 0.423
in methanol | 0.00958 | 0.0128 | 0.0179 | 0.0261 | 0.0402 | 0.0638 | 0.106 | 0.183 | 0.327
in n-butanol | 0.00774 | 0.00978 | 0.0129 | 0.018 | 0.0265 | 0.0409 | 0.0657 | 0.111 | 0.193
in n-heptane | 5.37e-05 | 0.000146 | 0.000336 | 0.000693 | 0.00141 | 0.00222 | 0.00361 | 0.00573 | 0.00905
in n-hexane | 0.000515 | 0.000732 | 0.00107 | 0.0016 | 0.00233 | 0.0035 | 0.00533 | 0.00803 | 0.0121
in n-propanol | 0.00747 | 0.00951 | 0.0127 | 0.0179 | 0.0264 | 0.041 | 0.0658 | 0.111 | 0.191
in sec-butanol | 0.00911 | 0.0137 | 0.0206 | 0.0314 | 0.0481 | 0.0755 | 0.118 | 0.189 | 0.301
